Data reported in US9302999B2, “Substituted triazoles as herbicides” (E. I. DU PONT DE NEMOURS AND COMPANY, priority 2012, dated 2016).

How the values were obtained:
Type in all cases: in vivo
[1] = system: barnyardgrass (Echinochloa crus-galli); test: Test A pre-/postemergence: barnyardgrass; conditions: for Barnyardgrass plant response rating: Postemergence; for Plant response rating, Barnyardgrass: Preemergence
Method in brief: (§1)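 Soil medium was loam blended with sand; treatments pre- and postemergence were applied concurrently, postemergence at one- to two-leaf stage. Approximately ten days in greenhouse preceded visual comparison with untreated controls, scored 0 (no effect) to 100 (complete control).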

[2] = system: crabgrass, large (large crabgrass, Digitaria sanguinalis); test: Test A pre-/postemergence: crabgrass, large; conditions: for Crabgrass, Large plant response rating: Postemergence; for Plant response rating, Crabgrass, Large: Preemergence
Method in brief: as §1

[3] = system: morningglory (Ipomoea spp.); test: Test A pre-/postemergence: morningglory; conditions: for Morningglory plant response rating: Postemergence; for Plant response rating, Morningglory: Preemergence
Method in brief: as §1

[4] = system: pigweed (Amaranthus retroflexus); test: Test A pre-/postemergence: pigweed; conditions: for Pigweed plant response rating: Postemergence; for Plant response rating, Pigweed: Preemergence
Method in brief: as §1

rice (Oryza sativa) = test: Test B flooded paddy: rice; conditions: Flood; 250 g ai/ha; applied to paddy water at 2-leaf stage; visually evaluated after 13 to 15 days
Method in brief: (§2)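 Each compound is applied to the floodwater of pots holding 2-leaf seedlings, water standing 3 cm over the soil throughout. Plants stay in a greenhouse 13 to 15 days before visual scoring against controls from 0 (no effect) to 100 (complete control).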

[5] = system: barnyardgrass (Echinochloa crus-galli); test: Test B flooded paddy: barnyardgrass; conditions: Flood; 250 g ai/ha; applied to paddy water at 2-leaf stage; visually evaluated after 13 to 15 days
Method in brief: as §2

[6] = system: blackgrass (Alopecurus myosuroides); test: Test C pre-/postemergence: blackgrass
Method in brief: (§3)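 Visual injury scored 0–100 (100 = complete control) against untreated controls after 13–15 greenhouse days. Surfactant-containing solvent formulations applied either to soil after sowing (loam/sand) or over 1- to 4-leaf plants, 2–18 cm tall.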

[7] = system: lambsquarters (Chenopodium album); test: Test C pre-/postemergence: lambsquarters
Method in brief: as §3

[8] = system: ragweed (common ragweed, Ambrosia elation); test: Test C pre-/postemergence: ragweed
Method in brief: as §3

soybean (Glycine max) = test: Test C pre-/postemergence: soybean
Method in brief: as §3

[9] = 125 g ai/ha, 0 to 100 scale, 0 is no effect, 100 is complete control
[10] = 500 g ai/ha, visual rating on 0 to 100 scale (0 no effect, 100 complete control), approximately ten days
[11] = 125 g ai/ha, 0 to 100 scale (0 no effect, 100 complete control)
[12] = 500 g ai/ha, 0 to 100 scale, 0 is no effect, 100 is complete control
[13] = Postemergence, 31 g ai/ha, scale 0 to 100 (0 no effect, 100 complete control)
[14] = Postemergence, 62 g ai/ha, scale 0 to 100 (0 no effect, 100 complete control)
[15] = Postemergence, 125 g ai/ha, scale 0 to 100, 0 no effect, 100 complete control
[16] = Postemergence, 250 g ai/ha, scale 0 to 100
[17] = Preemergence, 31 g ai/ha, scale of 0 to 100, 0 is no effect, 100 is complete control
[18] = Preemergence, 62 g ai/ha, scale 0 to 100, 0 no effect, 100 complete control
[19] = Preemergence, 125 g ai/ha, scale 0 to 100, 0 no effect, 100 complete control
[20] = Preemergence, 250 g ai/ha, scale 0 to 100, 0 no effect, 100 complete control
[21] = Preemergence, 62 g ai/ha, scale of 0 to 100, 0 is no effect, 100 is complete control

Fc1ccc(-n2nc(Cc3ccnc(C(F)(F)F)c3)c(OC(F)F)n2)cc1 [Compound 25]
Barnyardgrass plant response rating [1, 9]: 50 | Barnyardgrass plant response rating [1, 10]: 90 | Plant response rating, Barnyardgrass [1, 11]: 80 | Plant response rating, Barnyardgrass [1, 12]: 90 | Crabgrass, Large plant response rating [2, 9]: 90 | Crabgrass, Large plant response rating [2, 10]: 90 | Plant response rating, Crabgrass, Large [2, 11]: 90 | Plant response rating, Crabgrass, Large [2, 12]: 100 | Morningglory plant response rating [3, 9]: 100 | Morningglory plant response rating [3, 10]: 100 | Plant response rating, Morningglory [3, 11]: 30 | Plant response rating, Morningglory [3, 12]: 80 | Pigweed plant response rating [4, 9]: 100 | Pigweed plant response rating [4, 10]: 100 | Plant response rating, Pigweed [4, 11]: 100 | Plant response rating, Pigweed [4, 12]: 100 | Plant response rating, Rice (0 to 100 scale, 0 is no effect, 100 is complete control) (rice (Oryza sativa)): 35 | Plant response rating, Barnyardgrass (0 to 100 scale, 0 is no effect, 100 is complete control) [5]: 30 | Plant response rating, Blackgrass [6, 13]: 10 | Plant response rating, Blackgrass [6, 14]: 35 | Plant response rating, Blackgrass [6, 15]: 40 | Plant response rating, Blackgrass [6, 16]: 60 | Plant response rating, Blackgrass [6, 17]: 60 | Plant response rating, Blackgrass [6, 18]: 85 | Plant response rating, Blackgrass [6, 19]: 95 | Plant response rating, Blackgrass [6, 20]: 100 | Plant response rating, Lambsquarters [7, 13]: 70 | Plant response rating, Lambsquarters [7, 14]: 80 | Plant response rating, Lambsquarters [7, 15]: 98 | Plant response rating, Lambsquarters [7, 16]: 98 | Plant response rating, Lambsquarters [7, 17]: 90 | Plant response rating, Lambsquarters [7, 21]: 90 | Plant response rating, Lambsquarters [7, 19]: 98 | Plant response rating, Lambsquarters [7, 20]: 98 | Plant response rating, Ragweed [8, 13]: 50 | Plant response rating, Ragweed [8, 14]: 50 | Plant response rating, Ragweed [8, 15]: 60 | Plant response rating, Ragweed [8, 16]: 60 | Plant response rating, Ragweed [8, 17]: 5 | Plant response rating, Ragweed [8, 21]: 5 | Plant response rating, Ragweed [8, 19]: 20 | Plant response rating, Ragweed [8, 20]: 50 | Plant response rating, Soybean (soybean (Glycine max); [13]): 25 | Plant response rating, Soybean (soybean (Glycine max); [14]): 30 | Plant response rating, Soybean (soybean (Glycine max); [15]): 30 | Plant response rating, Soybean (soybean (Glycine max); [16]): 30 | Plant response rating, Soybean (soybean (Glycine max); [17]): 0 | Plant response rating, Soybean (soybean (Glycine max); [21]): 0 | Plant response rating, Soybean (soybean (Glycine max); [19]): 0 | Plant response rating, Soybean (soybean (Glycine max); [20]): 10

FC(F)Oc1nn(-c2ccc(C(F)(F)F)cc2)nc1Cc1ccnc(C(F)(F)F)c1 [Compound 26]
Barnyardgrass plant response rating [1, 9]: 80 | Barnyardgrass plant response rating [1, 10]: 90 | Plant response rating, Barnyardgrass [1, 11]: 90 | Plant response rating, Barnyardgrass [1, 12]: 90 | Crabgrass, Large plant response rating [2, 9]: 90 | Crabgrass, Large plant response rating [2, 10]: 90 | Plant response rating, Crabgrass, Large [2, 11]: 100 | Plant response rating, Crabgrass, Large [2, 12]: 100 | Morningglory plant response rating [3, 9]: 100 | Morningglory plant response rating [3, 10]: 100 | Plant response rating, Morningglory [3, 11]: 80 | Plant response rating, Morningglory [3, 12]: 80 | Pigweed plant response rating [4, 9]: 100 | Pigweed plant response rating [4, 10]: 100 | Plant response rating, Pigweed [4, 11]: 100 | Plant response rating, Pigweed [4, 12]: 100 | Plant response rating, Rice (0 to 100 scale, 0 is no effect, 100 is complete control) (rice (Oryza sativa)): 80 | Plant response rating, Barnyardgrass (0 to 100 scale, 0 is no effect, 100 is complete control) [5]: 60 | Plant response rating, Blackgrass [6, 13]: 30 | Plant response rating, Blackgrass [6, 14]: 35 | Plant response rating, Blackgrass [6, 15]: 70 | Plant response rating, Blackgrass [6, 16]: 90 | Plant response rating, Blackgrass [6, 17]: 55 | Plant response rating, Blackgrass [6, 18]: 90 | Plant response rating, Blackgrass [6, 19]: 90 | Plant response rating, Blackgrass [6, 20]: 90 | Plant response rating, Lambsquarters [7, 13]: 80 | Plant response rating, Lambsquarters [7, 14]: 95 | Plant response rating, Lambsquarters [7, 15]: 98 | Plant response rating, Lambsquarters [7, 16]: 98 | Plant response rating, Lambsquarters [7, 17]: 70 | Plant response rating, Lambsquarters [7, 21]: 98 | Plant response rating, Lambsquarters [7, 19]: 98 | Plant response rating, Lambsquarters [7, 20]: 100 | Plant response rating, Ragweed [8, 13]: 40 | Plant response rating, Ragweed [8, 14]: 55 | Plant response rating, Ragweed [8, 15]: 90 | Plant response rating, Ragweed [8, 16]: 95 | Plant response rating, Ragweed [8, 17]: 15 | Plant response rating, Ragweed [8, 21]: 35 | Plant response rating, Ragweed [8, 19]: 50 | Plant response rating, Ragweed [8, 20]: 75 | Plant response rating, Soybean (soybean (Glycine max); [13]): 35 | Plant response rating, Soybean (soybean (Glycine max); [14]): 40 | Plant response rating, Soybean (soybean (Glycine max); [15]): 50 | Plant response rating, Soybean (soybean (Glycine max); [16]): 55 | Plant response rating, Soybean (soybean (Glycine max); [17]): 0 | Plant response rating, Soybean (soybean (Glycine max); [21]): 5 | Plant response rating, Soybean (soybean (Glycine max); [19]): 5 | Plant response rating, Soybean (soybean (Glycine max); [20]): 15
